Results published in PubChem BioAssay AID248 (DTP/NCI, 2004).
“And” between values parts separate entries of the source, which are not always exact repeats. Equal entries are not always repeated. Toxic doses and inconclusive results are not listed. Rule as the data show it: active = T/C of 150% or more; inactive = T/C below 125%.

System: L1210 leukemia ip in BDF1 mice, survival T/C
Assay: NCI In Vivo Anticancer Drug Screen. Data for tumor model L1210 Leukemia (intraperitoneal) in B6D2F1 (BDF1) mice
Conditions: endpoint: mean survival time, higher = longer survival
How it was run: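 Tumor was transplanted into mice, which were then dosed with test compound or vehicle alone. Survival was recorded for each group, and the treated figure was expressed relative to the control figure.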

[1] = dose: 100.0 mg/kg/injection, schedule: Q04DX003 (ip), vehicle: saline
[2] = dose: 200.0 mg/kg/injection, schedule: Q04DX003 (ip), vehicle: saline
[3] = dose: 400.0 mg/kg/injection, schedule: Q04DX003 (ip), vehicle: saline
[4] = dose: 100.0 mg/kg/injection, schedule: Q04DX003 (ip), vehicle: saline with Tween-80
[5] = dose: 200.0 mg/kg/injection, schedule: Q04DX003 (ip), vehicle: saline with Tween-80
[6] = dose: 400.0 mg/kg/injection, schedule: Q04DX003 (ip), vehicle: saline with Tween-80
[7] = dose: 100.0 mg/kg/injection, schedule: Q04DX003 (ip), vehicle: Klucel (hydroxypropylcellulose) (HPC)
[8] = dose: 200.0 mg/kg/injection, schedule: Q04DX003 (ip), vehicle: Klucel (hydroxypropylcellulose) (HPC)
[9] = dose: 100.0 mg/kg/injection, schedule: Q01DX001 (ip), vehicle: Klucel (hydroxypropylcellulose) (HPC)
[10] = dose: 200.0 mg/kg/injection, schedule: Q01DX001 (ip), vehicle: Klucel (hydroxypropylcellulose) (HPC)
[11] = dose: 400.0 mg/kg/injection, schedule: Q01DX001 (ip), vehicle: Klucel (hydroxypropylcellulose) (HPC)
[12] = dose: 50.0 mg/kg/injection, schedule: Q01DX001 (ip), vehicle: saline
[13] = dose: 100.0 mg/kg/injection, schedule: Q01DX001 (ip), vehicle: saline

Measured: T/C

CN(C)[C@@H]1C(=O)C(C(=O)NCNc2nc(=S)c3[nH]cnc3[nH]2)=C(O)[C@@]2(O)C(=O)C3=C(O)c4c(O)cccc4[C@@](C)(O)[C@H]3C[C@@H]12
inactive: dose: 75.0 mg/kg/injection, schedule: Q01DX Z (ip), vehicle: carboxymethylcellulose (CMC) 119 % of control | dose: 125.0 mg/kg/injection, schedule: Q01DX Z (ip), vehicle: carboxymethylcellulose (CMC) 121 % of control | dose: 250.0 mg/kg/injection, schedule: Q01DX Z (ip), vehicle: carboxymethylcellulose (CMC) 95 % of control

O=C1CCc2cc3c(cc21)OCO3
inactive: [1] 103 % of control | [2] 96 % of control | [3] 102 % of control

CCOC(=O)C(C#N)(C1C=CCC1)C1C=CCC1 (centres undefined)
inactive: [4] 100 % of control | [5] 100 % of control | [6] 100 % of control

CCOC(=O)C1C(=O)C2CCc3c(ccc4ccccc34)N2C1=O (centres undefined)
inactive: [7] 98 % of control | [8] 104 % of control

O=[N+]([O-])c1cc(Cl)ccc1S(=O)(=O)CC(Cl)c1ccccc1 (centres undefined)
inactive: dose: 100.0 mg/kg/injection, schedule: Q01DX001 (ip), vehicle: acetone 104 % of control | dose: 100.0 mg/kg/injection, schedule: Q01DX009 (ip), vehicle: acetone 98 % of control | dose: 100.0 mg/kg/injection, schedule: Q04DX003 (ip), vehicle: acetone 108 % of control | dose: 200.0 mg/kg/injection, schedule: Q01DX001 (ip), vehicle: acetone 104 % of control | dose: 200.0 mg/kg/injection, schedule: Q01DX009 (ip), vehicle: acetone 87 % of control and 88 % of control | dose: 200.0 mg/kg/injection, schedule: Q04DX003 (ip), vehicle: acetone 100 % of control | dose: 400.0 mg/kg/injection, schedule: Q01DX001 (ip), vehicle: acetone 101 % of control | dose: 400.0 mg/kg/injection, schedule: Q01DX009 (ip), vehicle: acetone 106 % of control and 92 % of control | dose: 400.0 mg/kg/injection, schedule: Q04DX003 (ip), vehicle: acetone 100 % of control

CC1N=C(c2ccccc2)C(c2ccccc2)=NC1C (centres undefined)
inactive: [4] 94 % of control | [5] 101 % of control | [6] 101 % of control

CCOC(=O)C1(CCC(C)=O)CCCCC1=O (centres undefined)
inactive: dose: 100.0 mg/kg/injection, schedule: Q04DX002 (ip), vehicle: Klucel (hydroxypropylcellulose) (HPC) 97 % of control | dose: 200.0 mg/kg/injection, schedule: Q04DX002 (ip), vehicle: Klucel (hydroxypropylcellulose) (HPC) 103 % of control | dose: 400.0 mg/kg/injection, schedule: Q04DX002 (ip), vehicle: Klucel (hydroxypropylcellulose) (HPC) 100 % of control

NC(=O)CCC(N)C(=O)O (centres undefined)
inactive: dose: 6.25 mg/kg/injection, schedule: Q01DX009 (ip), vehicle: saline 108 % of control | dose: 100.0 mg/kg/injection, schedule: Q01DX009 (ip), vehicle: saline with Tween-80 97 % of control | [4] 94 % of control | dose: 200.0 mg/kg/injection, schedule: Q01DX009 (ip), vehicle: saline with Tween-80 90 % of control | [5] 93 % of control | dose: 400.0 mg/kg/injection, schedule: Q01DX009 (ip), vehicle: saline with Tween-80 93 % of control | [6] 96 % of control

O=C(N/N=C\c1cccc([N+](=O)[O-])c1)N/N=C/c1cccc([N+](=O)[O-])c1
inactive: dose: 6.25 mg/kg/injection, schedule: Q04DX003 (ip), vehicle: saline with Tween-80 92 % of control | dose: 12.5 mg/kg/injection, schedule: Q04DX003 (ip), vehicle: saline with Tween-80 97 % of control | dose: 25.0 mg/kg/injection, schedule: Q04DX003 (ip), vehicle: saline with Tween-80 87 % of control

CC1(C)CN=C(c2ccc([N+](=O)[O-])cc2)S1
inactive: [9] 100 % of control | [10] 102 % of control | [11] 100 % of control

C[Si](C)(CCl)CCCO[Si](C)(C)CCl
inactive: dose: 50.0 mg/kg/injection, schedule: Q01DX001 (ip), vehicle: carboxymethylcellulose (CMC) 102 % of control | dose: 100.0 mg/kg/injection, schedule: Q01DX001 (ip), vehicle: carboxymethylcellulose (CMC) 108 % of control | dose: 200.0 mg/kg/injection, schedule: Q01DX001 (ip), vehicle: carboxymethylcellulose (CMC) 96 % of control | dose: 400.0 mg/kg/injection, schedule: Q01DX001 (ip), vehicle: carboxymethylcellulose (CMC) 98 % of control

CC(=O)c1ccc(CC(C)C)cc1
inactive: dose: 150.0 mg/kg/injection, schedule: Q01DX009 (ip), vehicle: Klucel (hydroxypropylcellulose) (HPC) 90 % of control | dose: 300.0 mg/kg/injection, schedule: Q01DX009 (ip), vehicle: Klucel (hydroxypropylcellulose) (HPC) 94 % of control

O=c1[nH]nc(CF)c(=O)[nH]1
inactive: dose: 5.0 mg/kg/injection, schedule: Q01DX009 (ip), vehicle: saline 107 % of control | dose: 6.0 mg/kg/injection, schedule: Q01DX009 (ip), vehicle: saline 108 % of control | dose: 10.0 mg/kg/injection, schedule: Q01DX009 (ip), vehicle: saline 116 % of control | dose: 11.0 mg/kg/injection, schedule: Q01DX Z (ip), vehicle: saline 111 % of control | dose: 12.0 mg/kg/injection, schedule: Q01DX009 (ip), vehicle: saline 112 % of control | dose: 14.0 mg/kg/injection, schedule: Q01DX009 (ip), vehicle: saline 104 % of control | dose: 16.0 mg/kg/injection, schedule: Q01DX Z (ip), vehicle: saline 111 % of control | dose: 20.0 mg/kg/injection, schedule: Q01DX009 (ip), vehicle: saline 105 % of control and 124 % of control | dose: 24.0 mg/kg/injection, schedule: Q01DX009 (ip), vehicle: saline 122 % of control | dose: 30.0 mg/kg/injection, schedule: Q01DX009 (ip), vehicle: saline 119 % of control | dose: 40.0 mg/kg/injection, schedule: Q01DX009 (ip), vehicle: saline 116 % of control | [12] 110 % of control | [13] 119 % of control

CCCCN(C)N=Nc1ccc(C(N)=O)cc1
inactive: dose: 20.0 mg/kg/injection, schedule: Q01DX Z (ip), vehicle: carboxymethylcellulose (CMC) 98 % of control | dose: 40.0 mg/kg/injection, schedule: Q01DX Z (ip), vehicle: carboxymethylcellulose (CMC) 101 % of control | dose: 60.0 mg/kg/injection, schedule: Q01DX Z (ip), vehicle: carboxymethylcellulose (CMC) 104 % of control

C=C1C(=O)OC2CC/C=C\CCC12 (centres undefined)
inactive: dose: 50.0 mg/kg/injection, schedule: Q01DX009 (ip), vehicle: saline 95 % of control | dose: 100.0 mg/kg/injection, schedule: Q01DX009 (ip), vehicle: saline 103 % of control | dose: 200.0 mg/kg/injection, schedule: Q01DX009 (ip), vehicle: saline 95 % of control

NCCCC(N)C(=O)NCCCCCCNCCCCCCNC(=O)C(N)CCCN (centres undefined)
inactive: dose: 0.38 mg/kg/injection, schedule: Q01DX Z (ip), vehicle: saline 94 % of control | dose: 0.75 mg/kg/injection, schedule: Q01DX Z (ip), vehicle: saline 102 % of control | dose: 1.5 mg/kg/injection, schedule: Q01DX Z (ip), vehicle: saline 98 % of control | dose: 3.0 mg/kg/injection, schedule: Q01DX Z (ip), vehicle: saline 100 % of control and 106 % of control | dose: 10.0 mg/kg/injection, schedule: Q01DX Z (ip), vehicle: saline 93 % of control | dose: 30.0 mg/kg/injection, schedule: Q01DX Z (ip), vehicle: saline 96 % of control | [12] 101 % of control | [13] 98 % of control | dose: 100.0 mg/kg/injection, schedule: Q01DX Z (ip), vehicle: saline 91 % of control | dose: 200.0 mg/kg/injection, schedule: Q01DX001 (ip), vehicle: saline 95 % of control

CC(=O)OC(C)(C)/N=N/C(C)(C)OC(C)=O
inactive: [9] 94 % of control | dose: 100.0 mg/kg/injection, schedule: Q01DX009 (ip), vehicle: Klucel (hydroxypropylcellulose) (HPC) 101 % of control | [7] 108 % of control | [10] 108 % of control | dose: 200.0 mg/kg/injection, schedule: Q01DX009 (ip), vehicle: Klucel (hydroxypropylcellulose) (HPC) 101 % of control | [8] 101 % of control | [11] 103 % of control | dose: 400.0 mg/kg/injection, schedule: Q01DX009 (ip), vehicle: Klucel (hydroxypropylcellulose) (HPC) 101 % of control | dose: 400.0 mg/kg/injection, schedule: Q04DX003 (ip), vehicle: Klucel (hydroxypropylcellulose) (HPC) 103 % of control

CCCCCc1ccc(C(C)=O)cc1
inactive: [1] 100 % of control | [2] 114 % of control | [3] 114 % of control

ClC(Cl)c1ccccc1
inactive: [4] 98 % of control | [5] 95 % of control | [6] 87 % of control
